Laboratory results from the NIST ThermoML archive (doi:10.1021/je100832h).
± gives the expanded uncertainty stated by the source.

Details: Liquid; for mass density: 101.32 kPa, Vibrating tube method; for vapor or sublimation pressure: Ebulliometric method (Recirculating still)

CCCCCCCCC [nonane]
Details	mass density [kg/m3]	vapor or sublimation pressure [kPa]
291.15 K	719.2 ± 0.56	–
298.15 K	713.85 ± 0.55	–
318.15 K	698.09 ± 0.54	–
328.15 K	690.4 ± 0.54	–
365.3 K	–	15.58 ± 0.06
369.25 K	–	18.07 ± 0.06
372.81 K	–	20.58 ± 0.07
376.46 K	–	23.49 ± 0.07
379.71 K	–	26.35 ± 0.08
382.25 K	–	28.78 ± 0.08
384.65 K	–	31.22 ± 0.09
387.02 K	–	33.8 ± 0.09
389.45 K	–	36.62 ± 0.1
391.8 K	–	39.52 ± 0.1
393.48 K	–	41.74 ± 0.11
395.26 K	–	44.15 ± 0.11
396.96 K	–	46.56 ± 0.12
398.71 K	–	49.15 ± 0.12
400.61 K	–	52.12 ± 0.13
402.01 K	–	54.42 ± 0.13
403.31 K	–	56.55 ± 0.14
404.73 K	–	59.01 ± 0.14
406.27 K	–	61.77 ± 0.15
407.78 K	–	64.58 ± 0.16
408.93 K	–	66.76 ± 0.16
410.11 K	–	69.09 ± 0.17
411.32 K	–	71.53 ± 0.17
412.52 K	–	74.01 ± 0.18
413.68 K	–	76.48 ± 0.18
414.83 K	–	79.03 ± 0.19
415.9 K	–	81.41 ± 0.19
417.22 K	–	84.44 ± 0.2
418.24 K	–	86.85 ± 0.2
419.28 K	–	89.41 ± 0.21
420.5 K	–	92.43 ± 0.21
421.62 K	–	95.25 ± 0.22
422.83 K	–	98.4 ± 0.23
423.2 K	–	99.35 ± 0.23
423.61 K	–	100.44 ± 0.23
423.94 K	–	101.32 ± 0.23
424.92 K	–	104 ± 0.24
425.83 K	–	106.5 ± 0.24
426.71 K	–	108.99 ± 0.25
427.6 K	–	111.54 ± 0.25
428.4 K	–	113.88 ± 0.26
429.26 K	–	116.44 ± 0.27
430.22 K	–	119.35 ± 0.27
431.09 K	–	122.04 ± 0.28
432.04 K	–	124.99 ± 0.28
432.94 K	–	127.82 ± 0.29
433.74 K	–	130.52 ± 0.3
434.68 K	–	133.6 ± 0.3
435.58 K	–	136.62 ± 0.31
436.31 K	–	139.12 ± 0.31
437.11 K	–	141.9 ± 0.32
437.95 K	–	144.81 ± 0.33
438.67 K	–	147.42 ± 0.33
439.45 K	–	150.23 ± 0.34
440.11 K	–	152.67 ± 0.34
440.76 K	–	155.08 ± 0.35
441.41 K	–	157.53 ± 0.35
442.05 K	–	159.98 ± 0.36
442.77 K	–	162.8 ± 0.36
443.49 K	–	165.61 ± 0.37
444.23 K	–	168.53 ± 0.38
444.93 K	–	171.39 ± 0.38
445.49 K	–	173.63 ± 0.39
446.19 K	–	176.52 ± 0.39
446.75 K	–	178.85 ± 0.4
447.44 K	–	181.82 ± 0.41
448.07 K	–	184.55 ± 0.41
448.61 K	–	186.86 ± 0.41
449.27 K	–	189.75 ± 0.42
449.81 K	–	192 ± 1
450.56 K	–	195.54 ± 0.44
